Test results as given in patent US20250018019A1, “TREATMENT OF INTERFERON DRIVEN INFLAMMATION” (The Provost, Fellows, Foundation Scholars and the other …, priority 2023, published 2025).
Structures can show the parent of a compound that is named as a salt.

Assays:
[1] = tested on: BMDMs; experiment: Seahorse XF Glycolysis Stress Test (ECAR); assay type: cell-based, mouse; details: BMDMs pre-treated 3 h, LPS 4 h
Protocol: All compounds used DMSO as a vehicle except for 4-hydroxy tamoxifen (EtOH), NAC (PBS), and AOAA for tracing experiments (Media). LPS was used at a concentration of 100 ng/ml for indicated timepoints (2, 3, 4, 6, 8, 24, 48 h). FHIN1 (10 or 20 μM), MMF (50 or 100 μM), DMF (25 μM), AOAA (5 mM), oligomycin (10 μM), CCCP (50 μM) NAC (1 mM), and IMT1 (10 μM) pre-treatments were performed for 3 h prior the addition of LPS. Cells were treated with valinomycin (10 nM) 15 mins before LPS stimulation. Anti-CD210 or IgG control (10 μg/ml) antibodies were added to cells 1 h prior to LPS stimulation. Recombinant mouse IL-10 protein (100 ng/ml) was added to cells at the same time as LPS. Cells were treated with IFN-B1 (220 ng/ml) for 3 h. Cells were treated with C-178 (1 μM) 1 h prior to LPS stimulation or transfection with 2′3′-cGAMP (1.5 μg/ml) for 4 hrs to achieve cGAS-STING activation. Cells were treated with ODN 2088 (1 μM) for 1 hr prior to LPS stimulation or transfection with CPG ODN 1826 (1.5 μg/ml) to achieve TLR9 activation. 3 different timepoints of 4-hydroxy tamoxifen (TAM) (600 nM or 2 μM) or EtOH treatment were performed-these are specified in the individual figure legends. For ‘48 h’ treatments EtOH/TAM was added on day 5 of 6 during the BMDM differentiation protocol. On day 6 they were plated with EtOH/TAM (left overnight) and treated the following day. […]

[2] = tested on: BMDMs; experiment: Immunofluorescence, Mitotracker Red and dsRNA; assay type: cell-based, mouse; details: LPS 4 h
Protocol: All compounds used DMSO as a vehicle except for 4-hydroxy tamoxifen (EtOH), NAC (PBS), and AOAA for tracing experiments (Media). LPS was used at a concentration of 100 ng/ml for indicated timepoints (2, 3, 4, 6, 8, 24, 48 h). FHIN1 (10 or 20 μM), MMF (50 or 100 μM), DMF (25 μM), AOAA (5 mM), oligomycin (10 μM), CCCP (50 μM) NAC (1 mM), and IMT1 (10 μM) pre-treatments were performed for 3 h prior the addition of LPS. Cells were treated with valinomycin (10 nM) 15 mins before LPS stimulation. Anti-CD210 or IgG control (10 μg/ml) antibodies were added to cells 1 h prior to LPS stimulation. Recombinant mouse IL-10 protein (100 ng/ml) was added to cells at the same time as LPS. Cells were treated with IFN-B1 (220 ng/ml) for 3 h. Cells were treated with C-178 (1 μM) 1 h prior to LPS stimulation or transfection with 2′3′-cGAMP (1.5 μg/ml) for 4 hrs to achieve cGAS-STING activation. Cells were treated with ODN 2088 (1 μM) for 1 hr prior to LPS stimulation or transfection with CPG ODN 1826 (1.5 μg/ml) to achieve TLR9 activation. 3 different timepoints of 4-hydroxy tamoxifen (TAM) (600 nM or 2 μM) or EtOH treatment were performed-these are specified in the individual figure legends. For ‘48 h’ treatments EtOH/TAM was added on day 5 of 6 during the BMDM differentiation protocol. On day 6 they were plated with EtOH/TAM (left overnight) and treated the following day. For ‘72 h’ treatments EtOH/TAM was added on day […] of 6 during the BMDM differentiation protocol. On day 6 they were plated with EtOH/TAM (left overnight) and treated the following day. For ‘96 h’ treatments EtOH/TAM was added on day […] of 6 during the BMDM differentiation protocol. On day 6 they were plated with EtOH/TAM and treated 2 days later.
Cells were plated on 20 mm cover slips in 12-well plates. Cells were treated as required and Mitotracker Red CMXRos (100 nM, Thermo Fisher), was added to medium 30 mins prior to end of cell treatments. After 30 min incubation, cells were washed three times with warm PBS. Cells were subsequently fixed for 10 mins with 4% paraformaldehyde/PBS at 37° C. Cells were washed three times with PBS and permeabilized for 1 hour in block solution (1% BSA, 22.52 mg/ml glycine, 0.1% tween 20 in PBS). Anti-dsRNA antibody (Merck) was diluted 1/60 in block solution and incubated with cells overnight at room temperature. Cells were washed three times with PBS for 5 mins/wash. […] Images were analysed using the LAS X Life Science Microscope Software Platform (Leica). The same microscope instrument settings were used for all samples and all images were analysed using the same settings. […] Quantification of dsRNA or Mitotracker Red CMXRos signal intensity was performed using the measure function in ImageJ 1.53t (NIH).

[3] = tested on: human macrophages; experiment: RT-qPCR gene expression in human macrophages; assay type: cell-based; details: LPS-stimulated human macrophages, LPS 4 h
Protocol: PBMCs were taken, and CD14+ monocytes were isolated using MagniSort Human CD14 Positive Selection Kit (Thermo Fisher) according to the manufacturer's protocol. CD14 Monocytes were then differentiated in T-175 flasks in RPMI containing FCS (10%), penicillin/streptomycin (1%) and recombinant human M-CSF (1:1000). After 6 days, the supernatant was discarded, cells were scraped and counted, and human monocyte-derived macrophages (hMDMs) were plated in 12-well plates at 1×10^6 cells/mL RPMI containing FCS (10%) and penicillin/streptomycin (1%).
All compounds used DMSO as a vehicle except for 4-hydroxy tamoxifen (EtOH), NAC (PBS), and AOAA for tracing experiments (Media). […]
RNA extraction from cells was carried out using a Purelink™ RNA kit (Invitrogen) according to the manufacturer's instructions. […] Isolated RNA was quantified using a NanoDrop 2000 spectrophotometer, and RNA concentration was normalised to the lowest concentration across all samples with RNAse-free water. If necessary, samples were DNAse-treated after quantification using DNAse I (Thermo Fisher) according to the manufacturer's instructions. […] Real-time quantitative PCR was performed on the cDNA generated in the previous step, using primers designed in-house and ordered from Eurofins Genomics, as detailed in Table S2. […] Relative expression (2^−ΔΔCT) was calculated from the CT values for each sample and gene of interest.

Row | SMILES | glycolysis (ECAR) [1] | staining intensity of mitotracker RED (mtRED), MMP-dependent dye ([2]; BMDMs pre-treated 3 h) | dsRNA accumulation (immunofluorescence) ([2]; BMDMs pre-treated, relative to DMSO control) | IL10 expression [3] | Tnfa expression [3]
1 | COC(=O)/C=C/C(=O)OC [DMF, dimethyl fumarate] | suppressed glycolysis |  |  |  | 
2 | CCOC(=O)[C@@]12CCCC=C1N(Cc1ccc(-c3ccccc3)cc1)C(=O)[C@H]2CC(=O)NC [FHIN1, Fumarate hydratase-IN-1] |  | increased staining intensity | accumulation | suppressed | increased
